Test results as given in patent US20100273876A1, “ANTIBACTERIAL FORMULATION COMPRISING A DIALKYL SULPHOSUCCINATE AND A CARBANILIDE ANTIBACTERIAL AGENT” (priority 2007, published 2010).

Legend:
Assay in all cases: (S)DDA disc diffusion
P. acnes PRP-003 = assay type: cell-based, Propionibacterium acnes
Procedure: (§1) The propionibacteria were cultured and maintained on Wilkins-Chalgren Anaerobe Medium (agar and broth) at pH 6.0; all cultures were incubated anaerobically at 37° C. for 72 hours.
(§2) A sterile paper disc was impregnated with a sample of the test compound in a suitable solvent and 30 minutes allowed for the solvents to evaporate (where possible). The disc was then placed on an agar plate onto which the test micro-organism had been inoculated. The plate was then incubated under the conditions described above, following which it was examined visually for signs of microbial growth. If the test compound had antimicrobial activity, a circular zone of no growth would be obtained around the disc. The diameter of this zone of “inhibition” was measured using a ProtoCOL™ automated zone sizer (Synbiosis, Cambridge, UK). In general, a greater diameter and/or area of the zone of inhibition indicates a greater antimicrobial activity in the relevant test compound, although other factors such as test compound mobility through the agar gel may also influence the result.
(§3) Two test a compounds A and B were placed on a single paper disc and the above described DDA procedure repeated. An increase in diameter of the zone of inhibition, compared to the greater of the zone diameters for the two compounds individually, was taken to indicate potential antimicrobial synergy. In practical terms, an increase of greater than 5 mm could be treated as significant.
(§4) Both the DDA and the SDDA test may be carried out using an agar gel supplemented with lipid and/or salt to simulate some of the major components present in human skin and to assess whether these substances might reduce the antimicrobial activity observed for the test compound. Performance under these conditions can provide a more reliable indication of activity on topical application. The supplements used in Examples 1, 11, 12 and 13 below were lipid (either Tween™ 80 at 1% v/v (Example 1) or triolein at 1% v/v (Examples 11, 12 and 13) and sodium chloride (100 mM).

P. acnes PRP-004 = assay type: cell-based, Propionibacterium acnes
Procedure: as §1, §2, §3, §4

P. acnes PRP-017 = assay type: cell-based, Propionibacterium acnes
Procedure: as §1, §2, §3, §4

P. acnes PRP-023 = assay type: cell-based, Propionibacterium acnes
Procedure: as §1, §2, §3, §4

P. acnes PRP-026 = assay type: cell-based, Propionibacterium acnes
Procedure: as §1, §2, §3, §4

P. acnes PRP-053 = assay type: cell-based, Propionibacterium acnes
Procedure: as §1, §2, §3, §4

P. acnes PRP-059 = assay type: cell-based, Propionibacterium acnes
Procedure: as §1, §2, §3, §4

P. acnes PRP-101 = assay type: cell-based, Propionibacterium acnes
Procedure: as §1, §2, §3, §4

P. acnes PRP-102 = assay type: cell-based, Propionibacterium acnes
Procedure: as §1, §2, §3, §4

C. striatum NCTC 764 = assay type: cell-based, Corynebacterium striatum; settings: for DDA: 200 μg per disc
Procedure: Several Corynebacterium test species were also used in this study, namely C. mucifaciens ATCC 700355, C. striatum NCTC 764, C. xerosis NCTC 11861 and C. jeikeium NCTC 11915. These Gram-positive pathogens are closely related to organisms (aerobic diphtheroids of the genus Corynebacterium) that cause body odour. C. mucifaciens and C. striatum were cultured and maintained on Mueller-Hinton Medium (agar and broth) and were incubated aerobically at 37° C. for 24 hours. C. xerosis and C. jeikeium were cultured and maintained on Mueller-Hinton Medium containing 5% (v/v) lysed horse blood (agar and broth) and were incubated aerobically at 37° C. for 72 hours. A sterile paper disc was impregnated with a sample of the test compound in a suitable solvent and 30 minutes allowed for the solvents to evaporate (where possible). The disc was then placed on an agar plate onto which the test micro-organism had been inoculated. The plate was then incubated under the conditions described above, following which it was examined visually for signs of microbial growth. If the test compound had antimicrobial activity, a circular zone of no growth would be obtained around the disc. The diameter of this zone of “inhibition” was measured using a ProtoCOL™ automated zone sizer (Synbiosis, Cambridge, UK). In general, a greater diameter and/or area of the zone of inhibition indicates a greater antimicrobial activity in the relevant test compound, although other factors such as test compound mobility through the agar gel may also influence the result. Two test a compounds A and B were placed on a single paper disc and the above described DDA procedure repeated. An increase in diameter of the zone of inhibition, compared to the greater of the zone diameters for the two compounds individually, was taken to indicate potential antimicrobial synergy. In practical terms, an increase of greater than 5 mm could be treated as significant. The activities of DOSS and TCC were determined, using (S)DDAs, against the test organisms C. mucifaciens ATCC 700355, C. striatum NCTC 764, C. xerosis NCTC 11861 and C. jeikeium NCTC 11915. 200 μg of the DOSS and/or the TCC were loaded onto each disc. All the experiments were conducted in triplicate.

B. cereus ATCC 11778 = assay type: cell-based, Bacillus cereus; settings: 200 μg per disc
Procedure: as §2
Two test a compounds A and B were placed on a single paper disc and the above described DDA procedure repeated. […]
The activities of DOSS and TCC were determined, using (S)DDAs, against a panel of further test micro-organisms, namely B. cereus ATCC 11778, Bact. fragilis ATCC 25285, Clost. difficile […] and E. faecalis ATCC 29212. […]

[1] = P. acnes PRP-003 (Tet), 200 μg TCC or 50 μg DOSS per disc
[2] = P. acnes PRP-004 (Tet), 200 μg TCC or 50 μg DOSS per disc
[3] = P. acnes PRP-017 (MLS), 200 μg TCC or 50 μg DOSS per disc
[4] = P. acnes PRP-023 (MLSK), 200 μg TCC or 50 μg DOSS per disc
[5] = P. acnes PRP-026 (MLS), 200 μg TCC or 50 μg DOSS per disc
[6] = P. acnes PRP-053 (Tet/MLS), 200 μg TCC or 50 μg DOSS per disc
[7] = P. acnes PRP-059 (MLS), 200 μg TCC or 50 μg DOSS per disc
[8] = P. acnes PRP-101 (Tet/MLS), 200 μg TCC or 50 μg DOSS per disc
[9] = P. acnes PRP-102 (Tet/MLS), 200 μg TCC or 50 μg DOSS per disc

In the case of dioctyl sodium sulphosuccinate [DOSS], the DDA (P. acnes PRP-003; [1]) is reported as 27.95 mm, the DDA (P. acnes PRP-003; P. acnes PRP-003, 200 μg per disc) is reported as 42.96 mm and the “DDA + salt” value (P. acnes PRP-003; P. acnes PRP-003, 200 μg per disc, sodium chloride 100 mM) is reported as 46.69 mm. The “DDA + lipid” value (P. acnes PRP-003; P. acnes PRP-003, 200 μg per disc, triolein 1% v/v) was 43.58 mm, the DDA (P. acnes PRP-004; [2]) was 26.62 mm and the DDA (P. acnes PRP-004; P. acnes PRP-004, 200 μg per disc) was 48.56 mm. For the same compound, the “DDA + salt” value (P. acnes PRP-004; P. acnes PRP-004, 200 μg per disc, sodium chloride 100 mM) was 43.27 mm, the “DDA + lipid” value (P. acnes PRP-004; P. acnes PRP-004, 200 μg per disc, triolein 1% v/v) was 46.07 mm and the DDA (P. acnes PRP-017; [3]) was 28.98 mm. The DDA (P. acnes PRP-017; P. acnes PRP-017, 200 μg per disc) was 47.94 mm, the “DDA + salt” value (P. acnes PRP-017; P. acnes PRP-017, 200 μg per disc, sodium chloride 100 mM) was 47.63 mm and the “DDA + lipid” value (P. acnes PRP-017; P. acnes PRP-017, 200 μg per disc, triolein 1% v/v) was 44.82 mm. For the same compound, the DDA (P. acnes PRP-023; [4]) was 26.41 mm, the DDA (P. acnes PRP-023; P. acnes PRP-023, 200 μg per disc) was 49.49 mm and the “DDA + salt” value (P. acnes PRP-023; P. acnes PRP-023, 200 μg per disc, sodium chloride 100 mM) was 47.32 mm. For the same compound, the “DDA + lipid” value (P. acnes PRP-023; P. acnes PRP-023, 200 μg per disc, triolein 1% v/v) was 46.38 mm, the DDA (P. acnes PRP-026; [5]) was 28.26 mm and the DDA (P. acnes PRP-026; P. acnes PRP-026, 200 μg per disc) was 49.81 mm. For the same compound, the “DDA + salt” value (P. acnes PRP-026; P. acnes PRP-026, 200 μg per disc, sodium chloride 100 mM) was 48.25 mm, the “DDA + lipid” value (P. acnes PRP-026; P. acnes PRP-026, 200 μg per disc, triolein 1% v/v) was 43.89 mm and the DDA (P. acnes PRP-053; [6]) was 17.78 mm. For the same compound, the DDA (P. acnes PRP-053; P. acnes PRP-053, 200 μg per disc) was 49.49 mm, the “DDA + salt” value (P. acnes PRP-053; P. acnes PRP-053, 200 μg per disc, sodium chloride 100 mM) was 44.82 mm and the “DDA + lipid” value (P. acnes PRP-053; P. acnes PRP-053, 200 μg per disc, triolein 1% v/v) was 42.02 mm. For the same compound, the DDA (P. acnes PRP-059; [7]) was 11.82 mm, the DDA (P. acnes PRP-059; P. acnes PRP-059, 200 μg per disc) was 43.58 mm and the “DDA + salt” value (P. acnes PRP-059; P. acnes PRP-059, 200 μg per disc, sodium chloride 100 mM) was 44.20 mm. For the same compound, the “DDA + lipid” value (P. acnes PRP-059; P. acnes PRP-059, 200 μg per disc, triolein 1% v/v) was 44.82 mm, the DDA (P. acnes PRP-101; [8]) was 14.59 mm and the DDA (P. acnes PRP-101; P. acnes PRP-101, 200 μg per disc) was 41.40 mm. The “DDA + lipid” value (P. acnes PRP-101; P. acnes PRP-101, 200 μg per disc, triolein 1% v/v) was 40.47 mm, the DDA (P. acnes PRP-102; [9]) was 22.81 mm and the DDA (P. acnes PRP-102; P. acnes PRP-102, 200 μg per disc) was 44.82 mm. The “DDA + salt” value (P. acnes PRP-102; P. acnes PRP-102, 200 μg per disc, sodium chloride 100 mM) was 41.71 mm, the “DDA + lipid” value (P. acnes PRP-102; P. acnes PRP-102, 200 μg per disc, triolein 1% v/v) was 37.98 mm and the SDDA area increase (C. striatum NCTC 764) was 70.79%. For the same compound, the SDDA increase (C. striatum NCTC 764) was 6.0 mm, the “SDDA with TCC” value (C. striatum NCTC 764; 200 μg DOSS + 200 μg TCC on one disc) was 25.57 mm and the DDA (C. striatum NCTC 764) was 19.57 mm. For the same compound, the DDA (B. cereus ATCC 11778) was 18.10 mm.
Work on `O=C(Nc1ccc(Cl)cc1)Nc1ccc(Cl)c(Cl)c1` [TCC, N-(4-chlorophenyl)-N′-(3,4-dichlorophenyl) urea] yielded a DDA (P. acnes PRP-003; [1]) of 23.64 mm, a DDA (P. acnes PRP-004; [2]) of 15.42 mm and a DDA (P. acnes PRP-017; [3]) of 18.81 mm. The DDA (P. acnes PRP-023; [4]) was 21.27 mm, the DDA (P. acnes PRP-026; [5]) was 22.71 mm and the DDA (P. acnes PRP-053; [6]) was 21.58 mm. The DDA (P. acnes PRP-059; [7]) was 19.73 mm, the DDA (P. acnes PRP-101; [8]) was 16.75 mm and the DDA (P. acnes PRP-102; [9]) was 14.59 mm. It also gave a DDA (C. striatum NCTC 764) of 14.08 mm and a DDA (B. cereus ATCC 11778) of 12.96 mm.
